≈ marks a conversion by molar mass, not a printed value. Read-outs that look alike come from different tables or passages of the source.
How the values were obtained:
[1] = system: Eubacterium aerofaciens; test: standard agar-dilution test, anaerobic bacteria; assay type: cell-based; details: Collinsella aerofaciens, 24 h
[2] = system: Bacteroides melaninogenicus 2736; test: standard agar-dilution test, anaerobic bacteria; assay type: cell-based
[3] = system: Actinomyces israelii; test: standard agar-dilution test, anaerobic bacteria; assay type: cell-based; details: 24-hour incubation
[4] = system: Bacteroides thetaiotaomicron; test: standard agar-dilution test, anaerobic bacteria; assay type: cell-based; details: 24-hour incubation
Method: (§1) Table IV summarizes the activity of typical compounds of this invention, as determined by the standard agar-dilution test.
(§2) *Endpoint read after 24-hour incubation

[5] = system: Clostridium septicum; test: standard agar-dilution test, anaerobic bacteria; assay type: cell-based; details: 24-hour incubation
Method: as §1, §2

[6] = system: Bacteroides fragilis 1936B; test: standard agar-dilution test, anaerobic bacteria; assay type: cell-based
[7] = system: Mycoplasma synoviae; test: in vitro broth-dilution studies, mycoplasma; assay type: cell-based; details: Mycoplasmopsis synoviae
Text: (§3) The minimal inhibitory concentrations (MIC's) of a number of typical compounds of the present invention (R^2 =H in group tested) against various mycoplasma species, as determined by in vitro broth-dilution studies, are summarized in Table V.

[8] = system: Mycoplasma gallisepticum; test: in vitro broth-dilution studies, mycoplasma; assay type: cell-based; details: Mycoplasmoides gallisepticum
Text: as §3

[9] = system: Mycoplasma hyorhinis; test: in vitro broth-dilution studies, mycoplasma; assay type: cell-based
Text: as §3

[10] = system: Peptococcus asaccharolyticus; test: standard agar-dilution test, anaerobic bacteria; assay type: cell-based; details: Peptoniphilus asaccharolyticus, 24-hour incubation
[11] = system: Peptococcus prevoti; test: standard agar-dilution test, anaerobic bacteria; assay type: cell-based
[12] = toxicity (LD50) on intraperitoneal injection in mice; details: mouse, in vivo, ip; intraperitoneal injection, mice
[13] = system: Spiroplasma citri; test: in vitro inhibition of Spiroplasma citri measured by a color reaction; assay type: cell-based; design: key to Activity (color reaction): Red (R) includes complete inhibition; red-orange (RO) indicates partial inhibition; yellow (Y) indicates no inhibition
Method: In another important aspect, the compounds of this invention are active against Spiroplasmas. Spiroplasma citri is the causative agent of citrus-stubborn disease; another Spiroplasma, corn-stunt Spiroplasma, affects the growth of corn. Table VII summarizes the in vitro activity of representative compounds of the present invention (R^2 =H in this group) against Spiroplasma citri. In this test, inhibition of S. citri is measured by a color reaction. Red (R) includes complete inhibition; red-orange (RO) indicates partial inhibition; and yellow (Y) indicates no inhibition.

[14] = system: Fusobacterium necrophorum; test: standard agar-dilution test, anaerobic bacteria; assay type: cell-based
[15] = system: Bacteroides fragilis 1877; test: standard agar-dilution test, anaerobic bacteria; assay type: cell-based
[16] = system: Clostridium perfringens; test: microbe, parasite or virus in culture; assay type: cell-based; details: 24 h
[17] = system: Fusobacterium symbiosum; test: standard agar-dilution test, anaerobic bacteria; assay type: cell-based; details: Fusobacterium, 24 h
[18] = system: Bacteroides corrodens; test: standard agar-dilution test, anaerobic bacteria; assay type: cell-based; details: Eikenella corrodens
[19] = system: Bacteroides vulgatis; test: standard agar-dilution test, anaerobic bacteria; assay type: cell-based
[20] = system: Peptostreptococcus anaerobius; test: standard agar-dilution test, anaerobic bacteria; assay type: cell-based; details: 24-hour incubation
[21] = system: Bacteroides fragilis 111; test: standard agar-dilution test, anaerobic bacteria; assay type: cell-based; details: Bacteroides fragilis, 111, 24 h
[22] = system: Bacteroides melaninogenicus 1856/28; test: standard agar-dilution test, anaerobic bacteria; assay type: cell-based; details: Prevotella intermedia, 1856/28, 24 h
[23] = system: Peptostreptococcus intermedius; test: standard agar-dilution test, anaerobic bacteria; assay type: cell-based
[24] = system: Mycoplasma hyopneumoniae; test: in vitro broth-dilution studies, mycoplasma; assay type: cell-based; details: Mesomycoplasma hyopneumoniae
Text: as §3

[25] = system: Staphylococcus aureus (H-Heatley) NRRL B-314; test: in vitro turbidometric assay (Autoturb Microbiological Assay System) against Staphylococcus aureus; assay type: cell-based; details: nutrient broth pH 7, approximately 4 hours at 37° C., A-40104 factor A as standard
Method: The compounds are conveniently tested against a typical gram-positive organism, Staphylococcus aureus, using a turbidometric assay on a semi-automated system (Autoturb Microbiological Assay System, Elanco) described by N. R. Kuzel and F. W. Kavanagh in J. Pharmaceut. Sci, 60 (5), 764 and 767 (1971). In testing these compounds, the following parameters were used: Staphylococcus aureus (H-Heatley) NRRL B-314 in a nutrient broth medium (pH 7), incubated for approximately 4 hours at 37° C. Test samples and A-40104 factor A, which is used as a standard, were dissolved in water. The standard was presented to the Autoturb carrousel at concentrations of 1.25, 2.50, 3.75, 5.00 and 6.25 mcg/ml. Test compounds were diluted to contain approximately 2.5 to 5.0 mcg of activity per ml, as presented to the carrousel. The units of activity of some of the typical compounds of this invention (R^2 =H in group tested) in this in vitro assay are summarized in Table I

[26] = Bacteroides fragilis, 1936B, 24 h
[27] = Bacteroides fragilis, 1877, 24 h
[28] = Peptococcus prevoti, 24-hour incubation, read-out: MIC
[29] = 24-hour incubation, read-out: MIC

Structure (SMILES) | MIC [1] | MIC ([2]; 2736, 24 h) | MIC [3] | MIC [4] | MIC [5] | MIC [6, 26] | MIC [7] | MIC [8] | MIC [9] | MIC [10] | MIC [15, 27] | MIC [16] | MIC [17] | MIC ([18]; 24 h) | MIC ([19]; Bacteroides, 24 h) | MIC [20] | MIC [21] | MIC [22] | MIC ([23]; Peptostreptococcus, 24 h) | MIC [11, 28] | also measured
CC[C@]1(C)C[C@@H](OC(=O)CO[C@H]2O[C@H](COC(C)=O)[C@@H](OC(C)=O)[C@H](OC(C)=O)C2=NO)[C@]2(C)[C@H](C)CC[C@]3(CCC(=O)[C@H]32)[C@@H](C)[C@@H]1O [Compound 8, 14-deoxy-14-[(2-deoxy-2-(hydroxyimino)-3,4,6-tri-O-acetyl-α-D-glucopyranosyl)oxyacetoxy]-19,20-dihydromutilin] | > 128 µg/mL | > 128 µg/mL | 8 µg/mL (≈ 11.7 µM) | > 128 µg/mL | > 128 µg/mL | > 128 µg/mL | 6.25 µg/mL (≈ 9.17 µM) | 3.12 µg/mL (≈ 4.58 µM) | 6.25 µg/mL (≈ 9.17 µM) | 8 µg/mL (≈ 11.7 µM) | > 128 µg/mL | > 128 µg/mL | > 128 µg/mL | > 128 µg/mL | > 128 µg/mL | 64 µg/mL (≈ 93.9 µM) | > 128 µg/mL | > 128 µg/mL | > 128 µg/mL |  | MIC ([11]; 24 h): > 128 µg/mL; LD50 [12]: > 300 mg/kg; Activity (color reaction) ([13]; 0.1 ppm): Y; Activity (color reaction) ([13]; 1.0 ppm): R; MIC ([14]; 24 h): > 128 µg/mL
C=C[C@]1(C)C[C@@H](OC(=O)CO[C@H]2O[C@H](COC(C)=O)[C@H](OC(C)=O)[C@H](OC(C)=O)C2=NO)[C@]2(C)[C@H](C)CC[C@]3(CCC(=O)[C@H]32)[C@@H](C)[C@@H]1O [Compound 9, 14-deoxy-14-[(2-deoxy-2-(hydroxyimino)-3,4,6-tri-O-acetyl-α-D-galactopyranosyl)oxyacetoxy]mutilin] | > 128 µg/mL | > 128 µg/mL | 1 µg/mL (≈ 1.47 µM) | > 128 µg/mL | > 128 µg/mL | > 128 µg/mL | < 0.78 µg/mL | < 0.78 µg/mL | 1.56 µg/mL (≈ 2.29 µM) | 16 µg/mL (≈ 23.5 µM) | > 128 µg/mL | > 128 µg/mL | > 128 µg/mL | > 128 µg/mL | > 128 µg/mL | 2 µg/mL (≈ 2.94 µM) | > 128 µg/mL | > 128 µg/mL | > 128 µg/mL | 16 µg/mL (≈ 23.5 µM) | MIC [24]: 0.78 µg/mL (≈ 1.15 µM); MIC [14, 29]: 64 µg/mL (≈ 94.2 µM); Units of Activity [25]: 53 to 54 µg/mg
C=C[C@]1(C)C[C@@H](OC(=O)CS[C@@H]2O[C@H](COC(C)=O)[C@@H](OC(C)=O)[C@H](OC(C)=O)[C@H]2OC(C)=O)[C@]2(C)[C@H](C)CC[C@]3(CCC(=O)[C@H]32)[C@@H](C)[C@@H]1O [Compound 11, 14-deoxy-14-[(2,3,4,6-tetra-O-acetyl-β-D-glucopyranosyl)thioacetoxy]mutilin] | > 128 µg/mL |  | ≤ 0.5 µg/mL | 16 µg/mL (≈ 22.1 µM) | 16 µg/mL (≈ 22.1 µM) |  | 1.56 µg/mL (≈ 2.15 µM) | > 0.78 µg/mL | > 0.78 µg/mL | ≤ 0.5 µg/mL |  | > 128 µg/mL | 128 µg/mL (≈ 177 µM) |  |  | ≤ 0.5 µg/mL | 128 µg/mL (≈ 177 µM) | > 128 µg/mL |  | ≤ 0.5 µg/mL | MIC ([2]; Bacteroides melaninogenicus 2736, 24-hour incubation, read-out: MIC): 16 µg/mL (≈ 22.1 µM); MIC ([6]; Bacteroides fragilis 1936B, 24-hour incubation, read-out: MIC): 32 µg/mL (≈ 44.1 µM); MIC [14, 29]: 16 µg/mL (≈ 22.1 µM); MIC ([15]; Bacteroides fragilis 1877, 24-hour incubation, read-out: MIC): 32 µg/mL (≈ 44.1 µM); MIC ([18]; Bacteroides corrodens, 24-hour incubation, read-out: MIC): 32 µg/mL (≈ 44.1 µM); MIC ([19]; Bacteroides vulgatis, 24-hour incubation, read-out: MIC): 32 µg/mL (≈ 44.1 µM); Units of Activity [25]: 253 to 265 µg/mg; MIC ([23]; Peptostreptococcus intermedius, 24-hour incubation, read-out: MIC): 1 µg/mL (≈ 1.38 µM)

From patent publication US4130709A, “Pleuromutilin glycoside derivatives” (Eli Lilly and Company, priority 1977, dated 1978)
